Results on 6 molecules are retold here after paper PMC11822712, “Improving the Activity and Selectivity of a Scorpion-Derived Peptide, A3a, against Acinetobacter baumannii through Rational Design” (ACS Omega, 2025).

One data set deals with P. aeruginosa ATCC 27853. The data set is described as follows: microbe, parasite or virus in culture. In kind it is cell-based, Pseudomonas aeruginosa. The note with it: cation-adjusted MHB, OD600.
Data set [1] concerns A. baumannii ATCC 19606. The data set is described as follows: microbe, parasite or virus in culture. The class given is cell-based, Acinetobacter baumannii. The note with it: cation-adjusted MHB, OD600.
The test system of data set [2] is K. pneumoniae ATCC BAA-1705. As to the kind of experiment: microbe, parasite or virus in culture. In kind it is cell-based, Klebsiella pneumoniae.
In another data set the test system is E. cloacae ATCC 700323. As to the kind of experiment: microbe, parasite or virus in culture. The procedure: Antimicrobial activity was determined against a panel of ESKAPE pathogens. […] Bacterial colonies were picked and cultured in cation-adjusted MHB at 37 °C with 180 rpm shaking. Cultures were back-diluted to reach a starting OD600 of 0.1 and then diluted 100-fold to approximately 1 × 10^6 CFU/mL.

Another data set deals with E. coli ATCC 25922. As to the kind of experiment: microbe, parasite or virus in culture. In kind it is cell-based, Escherichia coli. The note with it: cation-adjusted MHB, OD600.
Data set [3] concerns S. aureus (MSSA) ATCC 25923. The data set is described as follows: microbe, parasite or virus in culture. The class given is cell-based, Staphylococcus aureus. The note with it: cation-adjusted MHB, OD600.
For a further data set, the system named is HaCat cell. Particulars: read-out: IC50 of HaCat cell viability; cited from earlier work. The protocol:
Previously, we amidated the C-terminus of A3 to improve its activity against Gram-negative bacteria.[14] A3, the amidated analogue A3a, and the parent peptide AamAP1 were evaluated for antibacterial activity against a panel of ESKAPE pathogens.

The next data set relates to erythrocytes. The note with it: 40 μM ref 13; cited from earlier work.
Data set [4] has as its system A. baumannii ATCC 19606. The data set is described as follows: Killing kinetics (CFU, Miles Misra method). In kind it is cell-based, Acinetobacter baumannii. The note with it: 1×, 4× and 8× MIC, A3a tested at the same concentration as A3a[R7K] (Figure 3 legend). The procedure:
Colistin (8 μg/mL) was used as a positive control. […] Following exposure, 10 μL was used from the individual wells to determine the CFUs with the Miles Misra method.[57] The limit of detection for this method was 1000 CFUs. This was done at 30 min and 2, 6, and 24 h.

Data set [5] relates to A. baumannii ATCC 19606. The data set is described as follows: Membrane permeabilization, SYTOX Green assay. In kind it is cell-based, Acinetobacter baumannii. The note with it: SYTOX Green fluorescence, 1× MIC, 0.5 and 2 h exposure; melittin 8 μM positive control; three biological repeats. The protocol:
For membrane permeabilization studies, A. baumannii ATCC 19606 cells were evaluated after exposure to each peptide by measuring fluorescence. The SYTOX Green assay was undertaken according to Zeng et al.,[58] with some modifications. […] Melittin (8 μM) was used as the positive control. The fluorescence was measured every 2 min at excitation and emission wavelengths of 485 and 535 nm, respectively (Spectramax, Multimode detection platform, Molecular Devices, Austria).

[6] abbreviates: approx. 1 × 10^6 CFU/mL added 1:1, 20 h, MIC = lowest concentration with growth <0.1 above background, > = no activity at highest concentration tested.
Setting [7] is: cation-adjusted MHB, approx. 1 × 10^6 CFU/mL added 1:1, 20 h, OD600, MIC = lowest concentration with growth <0.1 above background, > = no activity at highest concentration tested.
[8] abbreviates: same test as μg/mL value, 20 h, read-out: MIC (value in brackets).
[9] abbreviates: same test as μg/mL value, cation-adjusted MHB, 20 h, OD600.

In brackets after ≈: the same amount, converted by molar mass. Where two headings read alike, the source gives them in different places. Positions of bridges follow the written chain, without caps; N, C: chain ends. Non-standard residues stand in square brackets, D forms with d. Residues, ends and D or L forms follow the SMILES beside them. No end group written: not given here. *: point of attachment. X1 = CC[C@H](C)CCCCC(=O)*; Dab = NCC[C@H](N)C(=O)O Some results are limits rather than exact numbers.

With `CNC(C)C1CCC(N)C(OC2C(N)CC(N)C(OC3OCC(C)(O)C(NC)C3O)C2O)O1` (stereo not drawn) [gentamicin], the MIC with P. aeruginosa ATCC 27853 (Pseudomonas aeruginosa, ATCC27853, same test as μg/mL value, 20 h, read-out: MIC (value in brackets)) was found to be 8 µM; against P. aeruginosa ATCC 27853 (setting [6]) it was 4 µg/mL; in the data set with A. baumannii ATCC 19606 [1] (Acinetobacter baumannii, ATCC19606, same test as μg/mL value, 20 h, read-out: MIC (value in brackets)), 67 µM; in the data set with A. baumannii ATCC 19606 [1] (setting [6]) it was 32 µg/mL; in data set [2] (Klebsiella pneumoniae, ATCCBAA1705, 20 h, read-out: MIC (value in brackets)), 4 µM; in data set [2] (setting [7]), 2 µg/mL. Also, the MIC worked out at 4 µM in the data set with E. cloacae ATCC 700323 (Enterobacter cloacae, ATCC700323, 20 h, read-out: MIC (value in brackets)); 2 µg/mL in the data set on E. cloacae ATCC 700323 (cation-adjusted MHB, approx. 1 × 10^6 CFU/mL added 1:1, 20 h, OD600, […], > = no activity at highest concentration tested); 1 µM in the data set with E. coli ATCC 25922 (Escherichia coli, ATCC25922, same test as μg/mL value, 20 h, read-out: MIC (value in brackets)); 0.5 µg/mL with E. coli ATCC 25922 (setting [6]); 1 µM in data set [3] (Staphylococcus aureus, same test as μg/mL value, 20 h, read-out: MIC (value in brackets)); 0.5 µg/mL in [3] (setting [6]).
With `CC[C@H](C)CCCCC(=O)N[C@@H](CCN)C(=O)N[C@H](C(=O)N[C@@H](CCN)C(=O)N[C@H]1CCNC(=O)[C@H]([C@@H](C)O)NC(=O)[C@H](CCN)NC(=O)[C@H](CCN)NC(=O)[C@H](CC(C)C)NC(=O)[C@@H](Cc2ccccc2)NC(=O)[C@H](CCN)NC1=O)[C@@H](C)O` [polymyxin B] (X1-[Dab]T[Dab][Dab][Dab][dF]L[Dab][Dab]T; lactam 4-C (inferred); N-terminus assumed), the MIC against P. aeruginosa ATCC 27853 (setting [6]) is 2 µg/mL; with P. aeruginosa ATCC 27853 (setting [8]) it was 1.5 µM; against A. baumannii ATCC 19606 [1] (setting [6]), 1 µg/mL; with A. baumannii ATCC 19606 [1] (setting [8]), 0.76 µM; in [2] (setting [7]) it was 0.5 µg/mL; in the data set with E. cloacae ATCC 700323 (setting [7]) it was 0.25 µg/mL. Further, the values for the MIC (against E. coli ATCC 25922 (setting [6]); in the data set on E. coli ATCC 25922 (setting [8]); in [3] (setting [6])) were 0.5 µg/mL, 0.4 µM and greater than 32 µg/mL, respectively. In addition, the “MIC (value in brackets)” value in [2] (setting [9]) was 0.4 µM (≈ 0.481 µg/mL); against E. cloacae ATCC 700323 (setting [9]), 0.19 µM (≈ 0.229 µg/mL).
In general, IC50 refers to the concentration at which inhibition is half-maximal. Consider FLFSLIRKAIGGLISAFK [A3], for which the IC50 with HaCat cell is 59.9 µM. For the same molecule, the hemolysis in the data set with erythrocytes was 36.1%.
For FLFSLRKAGGLISAFK-NH2 [A3a[I(6,10)-del]], the MIC (in the data set on P. aeruginosa ATCC 27853 (setting [6]); in the data set on A. baumannii ATCC 19606 [1] (setting [6]); in data set [2] (setting [7]); in the data set with E. cloacae ATCC 700323 (setting [7]); against E. coli ATCC 25922 (setting [6]); in data set [3] (setting [6])) was greater than 128 µg/mL throughout.
Consider colistin, for which the “regrowth after 24 h in killing kinetics” value in the data set with A. baumannii ATCC 19606 [4] is recorded as “regrowth at all of the concentrations tested”.
Take melittin: the membrane permeabilization result with A. baumannii ATCC 19606 [5] is “rapid membrane permeabilization”.
